Data from US20010046497A1, “G-protein coupled receptor and methods” (priority 2000, published 2001).

Assays:
Format in all cases: cell-based
SP168 receptor [1] = molecular target: T1, SP168 receptor (Homo sapiens, UniProt Q9H244); assay: cAMP assay (inhibition of adenylyl cyclase); set-up: expressed in transfected cells; settings: adenylyl cyclase / cAMP pathway
Procedure: (§1) In order to identify SP168 receptor ligands the SP168 open reading frame was subcloned into the pcDNA3.1 expression vector under the control of the CMV promoter and transfected into mammalian cells. After allowing two days for receptor expression, the transfected cells were seeded into 96 well plates, loaded with the Ca^2+ sensitive Fluo-3AM dye and challenged with various compounds. The peak increments in Ca^2+ evoked by the test compounds were measured using the Fluorometric Inaging Plate Reader (FLIPR) system. The endogenous ligand of the SP168 receptor was purified from rat spinal cords using a series of chromatography steps and its structure was identified as being ADP by Mass spectroscopy. […] In addition to ADP, other agonists were also identified for SP168.
The SP168 receptor cDNA was stably transfected into CHO-DHFR cells according standard procedures. The SP168 receptor stable cell line and wild type cell grown on 12-well plates were incubated for 2 hr with […] of medium plus 5 μCi of [3H]adenine/ml. Then 50 μl of Hepes (250 mM, pH 7.5, 50 μM Forskolin, 200 μM IBMX) with the compound to be screened was added to the cells and incubated for 10 minutes at 37 ° C. Incubations were terminated by addition of 0.8 ml of 5% trichloroacetic acid. [^3H]cAMP was purified using Dowex and alumina chromatography as previously described (Harden et al., Mol. Pharmacol. 21:570-580, 1982).

SP168 receptor [2] = molecular target: T1, SP168 receptor; assay: FLIPR Ca2+ assay, SP168 co-transfected with Gq/i3 in NIH3T3 cells (agonists); set-up: expressed in transfected cells; host or cells: NIH3T3 cells, co-transfected with Gq/i3; settings: for EC50: FLIPR, peak Ca2+ increment, SP168 + Gq/i3 transfected cells
Procedure: as §1
SP168 receptor cDNA was subdloned into the pcDNA3.1 expression vector (Invitrogen) and transiently co-transfected with chimera G protein Gq/i3 into CHO-DHFR^− (ATCC CRL-9096) cells using lipofectamine (Gibco- BRL). Chimera G protein Gq/i3 was constructed by replacing the C-terminus five amino acid residues of human Gqa with the five amino acid residue of human Gi3a (Conklin et al., Nature, 363, p274-276). pCDNA 3.1 vector DNA was also co-transfected with chimera G protein Gq/i3 as a negative control. The transfected cells were seeded into 96 well plates and incubated overnight at 37° C. in a tissue culture incubator. The growth medium was aspirated and replaced with 100 μl of loading medium (DMEM containing 1% FBS, […] Fluo-3-AM/10% pluronic acid and 2.5 mM Probenecid) and incubated for 1 hour at 37° C. The cells were subsequently washed 3 times with Hank's BSS buffer containing 20 mM HEPES, 2.5 mM Probenecid, and 0.1% BSA using the gentle setting in a Denley cell washer (Denley Instruments). The washed cells were placed in a Fluorometric Imaging Plate Reader (FLIPR) and changes in cellular fluorescence recorded after the addition of various dilutions of tissue extract fractions.
(§2) Pharmacology of SP168—The pharmacological profile of SP168 was fuirther characterized by using the FLIPR and cAMP assays. SP168 was co-transfected with Gq/i3 to NIH3T3 cells, and a variety of nucleotides were screened by the FLIPR assay. […] EC50 for background ATP was about 1600 rLM, which was similar to 2-C1-ATP but was 20 fold higher than ADP. Therefore, even if ATP was included, the order of agonist potency was 2-MeS-ATP=2-MeS-ADP>ADP=ADPPS>ATPyS=ATP.

NIH3T3 = assay: FLIPR assay, background response of NIH3T3 cells; settings: fold higher than ADP
From the text: as §2

T1 sequence (Q9H244 whole entry): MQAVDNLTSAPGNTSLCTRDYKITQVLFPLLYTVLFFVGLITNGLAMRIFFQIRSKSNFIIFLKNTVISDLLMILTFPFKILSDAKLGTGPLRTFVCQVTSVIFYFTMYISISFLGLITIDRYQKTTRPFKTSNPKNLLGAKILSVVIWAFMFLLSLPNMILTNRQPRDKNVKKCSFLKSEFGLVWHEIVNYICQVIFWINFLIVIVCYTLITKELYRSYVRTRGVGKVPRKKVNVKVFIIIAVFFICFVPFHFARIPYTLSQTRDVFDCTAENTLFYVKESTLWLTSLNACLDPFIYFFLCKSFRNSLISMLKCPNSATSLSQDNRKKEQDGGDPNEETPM

Structure (SMILES)	EC50 (SP168 receptor [2]) [nM]	also measured
Nc1ncnc2c1ncn2[C@@H]1O[C@H](COP(=O)(O)OP(=O)(O)O)[C@@H](O)[C@H]1O [ADP, 5′-adenosine diphosphate]	74	activation of the SP168 receptor (SP168 receptor [1]): activate the SP168 receptor through inhibition of adenylyl cyclase
Nc1ncnc2c1ncn2[C@@H]1O[C@H](COP(=O)(O)OP(=O)(O)OP(O)(O)=S)[C@@H](O)[C@H]1O [ATPγS]	1200	–
Nc1ncnc2c1ncn2[C@@H]1O[C@H](COP(=O)(O)OP(=O)(O)OP(=O)(O)O)[C@@H](O)[C@H]1O [ATP]	–	EC50 of background ATP relative to ADP (NIH3T3): 20 fold; shift of dosage curve by SP168 transfection (SP168 receptor [2]; NIH3T3, FLIPR): did not induce the shift of dosage curve
CSc1nc(N)c2ncn([C@@H]3O[C@H](COP(=O)(O)OP(=O)(O)O)[C@@H](O)[C@H]3O)c2n1 [2-MeS-ADP]	2.3	–
CSc1nc(N)c2ncn([C@@H]3O[C@H](COP(=O)(O)OP(=O)(O)OP(=O)(O)O)[C@@H](O)[C@H]3O)c2n1 [2-MeS-ATP]	3.4	–
Nc1nc(Cl)nc2c1ncn2[C@@H]1O[C@H](COP(=O)(O)OP(=O)(O)OP(=O)(O)O)[C@@H](O)[C@H]1O [2-Cl-ATP]	470	–
Nc1ncnc2c1ncn2[C@@H]1O[C@H](COP(=O)(O)OP(O)(O)=S)[C@@H](O)[C@H]1O [ADPβS]	89	–
